In patent US8673870B2 (priority 2002, dated 2014):
“And” between values parts separate entries of the source, which are not always exact repeats. Identical values can stand only once.

Experiments:
APL cells = system: APL cells; parameters: species or system mice; settings: mouse, in vivo
[1] = system: Recombinant human RARα protein (rhRARα); parameters: species or system mice; settings: in vivo
fragment C = settings: in vivo
[2] = system: spleen cells stimulated with irradiated APL cells; experiment: Cytokine release assay (Th1/Th2 cytometric bead array); type: cell-based, mice
Protocol: Long term survivors (post day 300 illustrated in FIG. 2B) were sacrificed and tested for proliferation and cytokine release. Briefly, 5×10^5 responders (spleen cells from FVB/N injected with APL cells and treated with ATRA+PML-RARα-FrC or ScFvBCL1-FrC) were plated in each well with 200 μl of media consisting of RPMI 1640, 10% FCS and 0.5% […]. Spleen cells from healthy mice treated with ATRA. Stimulators (spleen cells from FVB/N, APL or BALB/c) were irradiated with 25 Gy and 1×10^6 cells were added to each well. After 24, 48 and 72 hours of incubation cells were assayed for ^3H-thymidine incorporation and supernatants were harvested for cytokine release assays. Cultures were set up in duplicate.
Cytokine release was measured using a mouse Th1/Th2 cytokine cytometric bead array kit according to the manufacturer's protocols (Becton, Dickinson, Pharmingen, San Jose, Calif.). This kit measures cytokines IL-2, IL-4, IL-5, IFN-γ and TNF-α. Long-term survivors of the mice from the protocol illustrated in FIG. 8, were sacrificed and spleen cells were cultured as described above. Briefly, 50 μl of supernatant was incubated with 50 μl of the mixed capture beads and 50 μl of the mouse Th1/Th2 PE detection reagent for 2 hours and analyzed on a FACSCalibur cytometer. Analysis was undertaken using the BD CBA (Becton Dickinson, Pharmingen) and Cell Quest software.

Molecule	Survival versus comparison arms (Kaplan Meier), in words (APL cells)	Survival: No. mice/total (APL cells)	Time to relapse and death post transplant (APL cells; sc)	Antibodies against RARα detected by ELISA, in words [1]	RARα Ab positive (%) [1]	RARα Ab positive: mice with detectable antibodies/mice alive [1]	Antibody response to fragment C (mice responding/mice tested) (fragment C)	IFN-γ release ([2]; 48 hours of culture, irradiated APL cells as stimulators, ATRA alone = spleen cells from healthy mice) [pg/mL]	Lifespan, in words (APL cells)	TNFα ([2]; with ATRA, approximately one year from injection of APL cells)
CC1=C(/C=C/C(C)=C/C=C/C(C)=C/C(=O)O)C(C)(C)CCC1 [ATRA, all-trans retinoic acid]	all of the mice relapse and die	24/24 (100%) and 5/24 (21%) and 0/24 (0%)	6-12 weeks	Significant levels of antibodies against RARα were detected	7/12 (58%) and 4/5 (80%)	0/12 and 7/12 (58%) and 4/5 (80%)	no antibodies to fragment C was detected	52		
ScFvBCL1-FrC: ScFv construct of King et al 1998 from a lymphoma patient fused in frame to BCL1 leader and fragment C (SEQ ID NO:11)									extended lifespan	increases in TNFα
